In publication PMC4110071, “DevR (DosR) mimetic peptides impair transcriptional regulation and survival of Mycobacterium tuberculosis under hypoxia by inhibiting the autokinase activity of DevS sensor kinase” (BMC Microbiology, 2014):
Like-named read-outs stand apart in the source and are kept apart here.

How the values were obtained:
[1] = tested on: DevS201 (cytoplasmic domain of DevS sensor kinase); experiment: DevS201 autokinase (autophosphorylation) assay, high-throughput filtration format; format: biochemical, Mycobacterium tuberculosis; settings: for % Inhibition of autokinase activity: mean of three independent experiments, 0 = lack of inhibition; for inhibition of DevS autokinase activity (in words): Pep peptides at 3 mM and 5 mM, preincubated with DevS201 (15 μM) 30 mins at 25°C, three independent experiments, poor reproducibility due to protein aggregation
[2] = tested on: Rv3134c promoter (DevR-dependent); format: cell-based, Mycobacterium tuberculosis; settings: for % Inhibition of reporter activity, Rv3134c promoter: hypoxic, mean of two independent experiments; for inhibition of Rv3134c promoter activity: peptides at 2.5 and 5 mM, two independent experiments
[3] = tested on: sigA promoter (not regulated by DevR); format: cell-based, Mycobacterium tuberculosis; settings: for % Inhibition of reporter activity, sigA promoter: peptide 5 mM, 0 = no detectable inhibition
[4] = tested on: DevS ~ P to DevR phosphotransfer; experiment: In vitro phosphotransfer assay from DevS~P to DevR; format: biochemical, Mycobacterium tuberculosis; settings: data not shown
Description: To study the phosphotransfer reaction, DevS201 (15 μM final concentration) was phosphorylated for 60 mins as described above. Subsequently, full-length DevR or DevRN protein (1–144 amino acid residues, 20 μM final concentration) was added to the phosphorylated DevS201 mix, and the reaction was incubated at 25°C for 2 mins. The reaction was terminated with 10 μl of 2X stop buffer (100 mM Tris-Cl, pH 6.8, 20% glycerol, 2% SDS, 280 mM β-mercaptoethanol, 0.01% bromophenol blue) and the samples were resolved on SDS-PAGE. The gel was rinsed in water and subjected to autoradiography.

[5] = tested on: M. tb H37Rv; experiment: REMA, aerobic Resazurin reduction assay; format: cell-based, Mycobacterium tuberculosis; settings: 64 h at 37°C, Resazurin fluorescence, two independent experiments
[6] = tested on: M. tuberculosis; format: cell-based, Mycobacterium tuberculosis; settings: aerobic cultures; with respect to the DMSO control; two independent experiments
[7] = tested on: HepG2 (human liver hepatocellular carcinoma); format: cell-based; settings: HepG2 cells; MTT; 5 mM and 2.5 mM peptide; 48 h; relative to the DMSO vehicle control; duplicate values
Description: (§1) Figure 6 Cytotoxicity of peptides. Percentage cytotoxicity due to exposure to peptides was assessed in HepG2 and CHO cell lines using the MTT assay. The cells were exposed to DevRS A-ext and DevRS D peptides at 2.5 mM and 5 mM concentration in 96-well plate format for 48 h. Percentage cytotoxicity is shown with respect to the DMSO control as mean ± SD for duplicate values.
(§2) The cytotoxicity of DevRS1 peptide was assessed in CHO (Chinese hamster ovary cells) and HepG2 (human liver hepatocellular carcinoma) cell lines. Both the cell lines were maintained in DMEM supplemented with 10% FBS at 37°C in 5% CO2. Approximately, 10^4 cells were seeded per well in a 96-well plate and incubated at 37 °C for 12–16 h. The peptides were diluted in 125 μl DMEM and added onto cells (final volume 250 μl per well, 2.5 and 5 mM final peptide concentrations), and the plate was incubated at 37°C in 5% CO2 for 48 h. Subsequently, 20 μl of MTT (Sigma 5 μg μl^-1) was added and incubated for 4–5 h at 37°C. Following incubation, media was discarded and the formazan crystals were solubilized by adding 200 μl DMSO and the absorbance measured at A560 nm. The percentage toxicity was calculated as: […]

[8] = tested on: CHO (Chinese hamster ovary cells); format: cell-based; settings: MTT, 5 mM and 2.5 mM peptide, 48 h, relative to the DMSO vehicle control, duplicate values
Description: as §1, §2

SLFRDWP [Pep C]
% Inhibition of autokinase activity ([1]; Pep peptide 5 mM): 0% | inhibition of DevS autokinase activity (in words) ([1]; then ATP 1 h): did not inhibit autokinase activity at any of the concentrations tested | % Inhibition of autokinase activity ([1]; peptide 3 mM): 0%

ITNPDPY [Pep D]
inhibition of DevS autokinase activity (in words) ([1]; then ATP 1 h): inhibit DevS autokinase activity to varying degrees

TFESYSL [Pep B]
inhibition of DevS autokinase activity (in words) ([1]; then ATP 1 h): inhibit DevS autokinase activity to varying degrees

KDIKGME [DevRS A, DevR mimetic peptide KDIKGME]
% Inhibition of reporter activity, Rv3134c promoter ([2]; peptide 2.5 mM): 30% | % Inhibition of reporter activity, Rv3134c promoter ([2]; peptide 5 mM): ~ 45% | % Inhibition of reporter activity, sigA promoter ([3]; aerobic): 6% | % Inhibition of reporter activity, sigA promoter ([3]; hypoxic): ~ 14%

HNTRGEE [Pep A]
inhibition of DevS autokinase activity (in words) ([1]; then ATP 1 h): inhibit DevS autokinase activity to varying degrees

VRLPD [DevRS D, DevR mimetic peptide VRLPD]
inhibition of phosphosignal transfer from DevS ~ P to DevR (in words) [4]: neither DevRS A-ext nor DevRS D inhibited this reaction | inhibition of Rv3134c promoter activity ([2]; […]): 20-30% | inhibition of Rv3134c promoter activity ([2]; hypoxic conditions): ~40% | inhibition of DevS autokinase activity ([1]; DevRS peptide 5 mM, preincubated with DevS201 30 mins at 25°C, then ATP 1 h, mean of two independent experiments): 37% | inhibition of viability, REMA [5]: ≤ 15% | CFU: % Inhibition of Viability [6]: ≤ 10% | inhibition of sigA promoter activity (in words) [3]: did not inhibit sigA promoter activity | Percentage cytotoxicity [7]: 20-40% | Percentage cytotoxicity [8]: 20-40%
